In patent US20020055528A1, “Artemisinin analogs having antimalarial, antiproliferative, and antitumor activities and chemoselective methods of making the same” (priority 1999, published 2002):
“Also recorded” adds a separate entry of the source. Read-outs that look alike come from different tables or passages of the source.

Key:
[1] = tested on: SW-620; experiment: NCI 60 cell line screen (SRB), Colon Cancer; format: cell-based
[2] = tested on: MDA-MB-435; experiment: NCI 60 cell line screen (SRB), Breast Cancer; format: cell-based
[3] = tested on: NCI-H23; experiment: NCI 60 cell line screen (SRB), Non-Small Cell Lung Cancer; format: cell-based
[4] = tested on: SK-OV-3; experiment: NCI 60 cell line screen (SRB), Ovarian Cancer; format: cell-based
[5] = tested on: SR; experiment: NCI 60 cell line screen (SRB), Leukemia; format: cell-based; conditions: Table IV (LC50, PG=−50)
[6] = tested on: SN12C; experiment: NCI 60 cell line screen (SRB), Renal Cancer; format: cell-based
[7] = tested on: NCI/ADR-RES; experiment: NCI 60 cell line screen (SRB), Breast Cancer; format: cell-based
[8] = tested on: HS 578T; experiment: NCI 60 cell line screen (SRB), Breast Cancer; format: cell-based
[9] = tested on: SK-MEL2; experiment: NCI 60 cell line screen (SRB), Melanoma; format: cell-based
[10] = tested on: MCF7; experiment: NCI 60 cell line screen (SRB), Breast Cancer; format: cell-based
[11] = tested on: A498; experiment: NCI 60 cell line screen (SRB), Renal Cancer; format: cell-based
[12] = tested on: MOLT-4
Experimental: (§1) The screening assay is performed on 96-well microtitre plates. Relatively high initial inoculation densities are used, in order to permit measurement of “time-zero” values and to enhance the screen's ability to detect and provide some differentiation between antiproliferative and cytotoxic response parameters. […] The inoculated microtitre plates are pre-incubated for 24 hours at 37θC prior to drug additions. The five drug dilutions tested routinely range from 10^−4 to 10^−8 molar. Higher or lower concentration ranges may be selected on a nonroutine basis if appropriate solubility and/or prior biological information or other screening data so dictate. Duplicate wells are prepared for all concentrations, (concentration is often denoted by placing brackets around a number); “time-zero” and “no drug” controls are also provided for each test. The minimum amount of compound required for a one-time evaluation in the routine screen can be calculated from the knowledge that each test requires a total of approximately 40 ml (0.04 liter) of cell culture medium containing the highest desired drug concentration. Thus, the amount (grams) of sample required (assuming an upper test concentration limit of 10^−4 M) is: molecular weight of compound×[…]. After a 48 hour incubation (37θC) with the test compound, the cells are fixed in situ to the bottoms of the microtitre wells by addition of 50 ul of either 50% trichloroacetic acid (for adherent cell lines) or 80% trichloroacetic acid (for settled cell suspension lines), followed by incubation for 60 minutes at 4θC. The cellular protein in each well is assayed using a sulforhodamine B (SRB) stain procedure. Briefly, after discarding the supernatants, the microtitre plates are washed 5 times with deionized water and air-dried. One hundred microliters of SRB solution (0.4% w/v in 1% acetic acid) is added to each microtitre well and incubated for 10 minutes at room temperature. Unbound SRB is removed by washing 5 times with 1 % acetic acid. The plates are air-dried, the bound stain is solubilized with Tris buffer, and the optical densities read at 515 nm. SRB is a bright pink anionic dye which, in dilute acetic acid, binds electrostatically to the basic amino acids of TCA-fixed cells. Cryopreserved master stocks of all the lines are maintained, and cultures used for screening are replaced from the master stock after no more than twenty passages in the screening laboratory. The cell line panel consists of 60 lines, organized into nine, disease-related subpanels including leukemia, non-small-cell lung cancer, colon, CNS, melanoma, ovarian, renal, prostate and breast cancers.
(§2) The response parameters G150 and LC50 are interpolated values representing the concentrations at which the percentage growth (PG) is +50 and −50, respectively:
(§3) GI50 is the concentration for which the PG=+50. At this value the increase from time tzero, in the number or mass of cells in the test well is only 50% as much as the corresponding increase in the control well during this period of the experiment, see Table II. A drug effect of this intensity is interpreted as primary growth inhibition.
(§4) TGI is the concentration for which PG=0. At this value the number or mass of cells in the well at the end of the experiment equals the number or mass of cells in the well at time tzero, see Table III. A drug effect of this intensity is regarded as cytostasis.
(§5) LC50 is the concentration for which the PG=−50. At this value, the number or mass of cells in the test well at the end of the experiment is half that at time tzero, see Table IV. This is interpreted as cytotoxicity.

[13] = tested on: 60 cell line panel; experiment: NCI 60 cell line screen (SRB), whole panel; format: cell-based
Experimental: as §1, §2, §3, §4, §5

[14] = tested on: OVCAR-3; experiment: NCI 60 cell line screen (SRB), Ovarian Cancer; format: cell-based; conditions: PG=0
[15] = tested on: SNB-19; experiment: NCI 60 cell line screen (SRB), CNS Cancer; format: cell-based
[16] = tested on: K-562; experiment: NCI 60 cell line screen (SRB), Leukemia; format: cell-based
[17] = tested on: MDA-MB231/ATCC; experiment: NCI 60 cell line screen (SRB), Breast Cancer; format: cell-based; conditions: MDA- (first line of MDA-MB231/ATCC)
[18] = tested on: NCI-H322M; experiment: NCI 60 cell line screen (SRB), Non-Small Cell Lung Cancer; format: cell-based
[19] = tested on: UACC-62; experiment: NCI 60 cell line screen (SRB), Melanoma; format: cell-based

CC1=C(C=Cc2cccc(C=CC3=C(C)C4CCC(C)C5CCC6(C)OOC45C(O3)O6)c2)OC2OC3(C)CCC4C(C)CCC1C24OO3 (centres unmarked) [VII-h]
Log10TGI ([1]; PG=0): >−4.00 log10M | Log10GI50 ([1]; PG=+50): −7.59 log10M | Log10TGI ([2]; MDA-MB-435, PG=0): >−4.00 log10M | Log10GI50 ([2]; MDA-MB−435, PG=+50): −7.29 log10M | Log10GI50 ([2]; Table IV (LC50, PG=−50), MDA-MB-435): >−4.00 log10M | Log10TGI ([3]; PG=0): >−4.00 log10M | log10 GI50 or LC50 (see conditions) ([3]; PG=+50): −6.35 log10M | log10 GI50 or LC50 (see conditions) ([3]; Table IV (LC50, PG=−50)): >−4.00 log10M | Log10TGI ([4]; PG=0): >−4.00 log10M | Log10GI50 ([4]; Table IV (LC50, PG=−50)): >−4.00 log10M | Log10GI50 [5]: >−4.00 log10M | Log10TGI ([6]; SN12C, PG=0): >−4.00 log10M | Log10GI50 ([6]; SNI2C, PG=+50): −7.31 log10M | Log10GI50 ([6]; Table IV (LC50, PG=−50), SN12C): −4.00 log10M | Log10TGI ([7]; PG=0): −4.40 log10M | Log10GI50 ([7]; PG=+50): −5.76 log10M | Log10GI50 ([7]; Table IV (LC50, PG=−50)): >−4.00 log10M | Log10TGI ([8]; PG=0): >−4.00 log10M | Log10GI50 ([8]; PG=+50): −7.41 log10M | Log10GI50 ([8]; Table IV (LC50, PG=−50)): >−4.00 log10M | Log10TGI ([9]; PG=0): −5.34 log10M | Log10 GI50 or LC50 (per conditions) ([9]; PG=+50): −6.87 log10M | Log10 GI50 or LC50 (per conditions) ([9]; Table IV (LC50, PG=−50)): >−4.00 log10M | Log10TGI ([10]; PG=0): −4.31 log10M | Log10GI50 ([10]; PG=+50): −7.33 log10M | Log10GI50 ([10]; Table IV (LC50, PG=−50)): >−4.00 log10M | Log10TGI ([11]; PG=0): >−4.00 log10M | Log10GI50 ([11]; PG=+50): −6.29 log10M | Log10GI50 ([11]; Table IV (LC50, PG=−50)): >−4.00 log10M | drug concentration for cytotoxicity (percentage growth −50) [12]: greater than 10^−4 M | drug concentration for primary growth inhibition (percentage growth +50) ([12]; MOLT-4, FIGS. 6a-6e): greater than 10^−8 molar | Log10GI50 ([12]; MOLT-4, PG=+50): <−8.00 log10M | Log10TGI ([12]; MOLT−4, PG=0): <−8.00 log10M | Log10GI50 ([12]; Table IV (LC50, PG=−50), MOLT−4): >−4.00 log10M | MG MID of Log10GI50 (Table IV) ([13]; Table IV (LC50), mean over the panel): −4.01 log10M | Delta of Log10GI50 (Table IV) ([13]; Table IV (LC50), panel summary): 0.43 | Range of Log10GI50 (Table IV) ([13]; Table IV (LC50), panel summary): .44 | potency in words, compared with artemisinin and paclitaxel ([13]; Tables II, III and IV): in most instances are as potent and in some instances more potent than paclitaxel; also recorded: more potent than artemisinin and equivalent to and in many instances higher in potency than paclitaxel | MG MID of Log10GI50 ([13]; mean over the panel): −7.03 log10M | MG MID of Log10TGI ([13]; mean over the panel): −4.61 log10M | Delta of Log10GI50 ([13]; panel summary): 0.97 | Delta of Log10TGI ([13]; panel summary): 2.62 | Range of Log10GI50 ([13]; panel summary): 4.00 | Range of Log10TGI ([13]; panel summary): 3.23 | Log10TGI [14]: >−4.00 log10M | Log10TGI ([15]; PG=0): >−4.00 log10M | Log10GI50 or Log10LC50 (see condition) ([15]; PG=+50): −7.09 log10M | Log10GI50 or Log10LC50 (see condition) ([15]; Table IV (LC50, PG=−50)): >−4.00 log10M | Log10TGI ([16]; PG=0): −7.70 log10M | Log10GI50 ([16]; PG=+50): −7.70 log10M | Log10GI50 ([16]; Table IV (LC50, PG=−50)): >−4.00 log10M | Log10TGI ([17]; PG=0): −5.35 log10M | Log10 GI50 or LC50 (per conditions) ([17]; PG=+50): −6.49 log10M | Log10 GI50 or LC50 (per conditions) ([17]; Table IV (LC50, PG=−50)): >−4.00 log10M | Log10TGI ([18]; PG=0): −5.88 log10M | Log10GI50 ([18]; PG=+50): −7.56 log10M | Log10TGI ([19]; PG=0): >−4.00 log10M | Log10GI50 ([19]; PG=+50): −6.91 log10M | Log10GI50 ([19]; Table IV (LC50, PG=−50)): >−4.00 log10M
